Data published in ChEMBL document CHEMBL2331210, “New 2-benzylsulfanyl-nicotinic acid based 1,3,4-oxadiazoles: their synthesis and biological evaluation” (2013).
Converted amounts (≈) assume the structure as drawn.

Key:
MDA-MB-435 = assay: Antitumor activity against human MDA-MB-435 cells assessed as cell growth at 0.1 uM; format: functional; conditions: read-out: Activity
HL-60 = assay: Antitumor activity against human HL60(TB) cells assessed as cell growth at 0.1 uM; format: functional; conditions: read-out: Activity
NCI-H460 = assay: Antitumor activity against human NCI-H460 cells assessed as cell growth at 0.1 uM; format: functional; conditions: read-out: Activity
UO-31 = assay: Antitumor activity against human UO31 cells assessed as cell growth at 0.1 uM; format: functional; conditions: read-out: Activity
MDA-MB-468 = assay: Antitumor activity against human MDA-MB-468 cells assessed as cell growth at 0.1 uM; format: functional; conditions: read-out: Activity
[1] = Antitumor activity against human Hs 578T cells assessed as cell growth at 0.1 uM; format: functional; conditions: read-out: Activity
[2] = test system: Mycobacterium tuberculosis; assay: Antitubercular activity against Mycobacterium tuberculosis H37Rv assessed as growth inhibition after 12 to 28 days by L.J. agar MIC method; format: functional
SW-620 = assay: Antitumor activity against human SW620 cells assessed as cell growth at 0.1 uM; format: functional; conditions: read-out: Activity
Malme-3M = assay: Antitumor activity against human MALME-3M cells assessed as cell growth at 0.1 uM; format: functional; conditions: read-out: Activity
Aspergillus clavatus = assay: Antimicrobial activity against Aspergillus clavatus MTCC 1323 assessed as growth inhibition measured after overnight incubation by broth dilution method; format: functional
LOX IMVI = assay: Antitumor activity against human LOXIMVI cells assessed as cell growth at 0.1 uM; format: functional; conditions: read-out: Activity
UACC-62 = assay: Antitumor activity against human UACC62 cells assessed as cell growth at 0.1 uM; format: functional; conditions: read-out: Activity
HCT-15 = assay: Antitumor activity against human HCT15 cells assessed as cell growth at 0.1 uM; format: functional; conditions: read-out: Activity
UACC-257 = assay: Antitumor activity against human UACC257 cells assessed as cell growth at 0.1 uM; format: functional; conditions: read-out: Activity
NCI-H23 = assay: Antitumor activity against human NCI-H23 cells assessed as cell growth at 0.1 uM; format: functional; conditions: read-out: Activity
Streptococcus pyogenes = assay: Antimicrobial activity against Streptococcus pyogenes MTCC 442 assessed as growth inhibition measured after overnight incubation by broth dilution method; format: functional
DU-145 = assay: Antitumor activity against human DU145 cells assessed as cell growth at 0.1 uM; format: functional; conditions: read-out: Activity
SNB-19 = assay: Antitumor activity against human SNB19 cells assessed as cell growth at 0.1 uM; format: functional; conditions: read-out: Activity
Candida albicans = assay: Antimicrobial activity against Candida albicans MTCC 227 assessed as growth inhibition measured after overnight incubation by broth dilution method; format: functional
SR = assay: Antitumor activity against human SR cells assessed as cell growth at 0.1 uM; format: functional; conditions: read-out: Activity
HT-29 = assay: Antitumor activity against human HT-29 cells assessed as cell growth at 0.1 uM; format: functional; conditions: read-out: Activity
OVCAR-4 = assay: Antitumor activity against human OVCAR4 cells assessed as cell growth at 0.1 uM; format: functional; conditions: read-out: Activity
OVCAR-3 = assay: Antitumor activity against human OVCAR3 cells assessed as cell growth at 0.1 uM; format: functional; conditions: read-out: Activity
CAKI-1 = assay: Antitumor activity against human CAKI-1 cells assessed as cell growth at 0.1 uM; format: functional; conditions: read-out: Activity
SF-539 = assay: Antitumor activity against human SF539 cells assessed as cell growth at 0.1 uM; format: functional; conditions: read-out: Activity
MDA-MB-231 = assay: Antitumor activity against human MDA-MB-231/ATCC cells assessed as cell growth at 0.1 uM; format: functional; conditions: read-out: Activity
SF-268 = assay: Antitumor activity against human SF268 cells assessed as cell growth at 0.1 uM; format: functional; conditions: read-out: Activity
Escherichia coli = assay: Antimicrobial activity against Escherichia coli MTCC 443 assessed as growth inhibition measured after overnight incubation by broth dilution method; format: functional
ACHN = assay: Antitumor activity against human ACHN cells assessed as cell growth at 0.1 uM; format: functional; conditions: read-out: Activity
SN12C = assay: Antitumor activity against human SN12C cells assessed as cell growth at 0.1 uM; format: functional; conditions: read-out: Activity
BT-549 = assay: Antitumor activity against human BT549 cells assessed as cell growth at 0.1 uM; format: functional; conditions: read-out: Activity
Pseudomonas aeruginosa = assay: Antimicrobial activity against Pseudomonas aeruginosa MTCC 2488 assessed as growth inhibition measured after overnight incubation by broth dilution method; format: functional
SK-MEL-28 = assay: Antitumor activity against human SK-MEL-28 cells assessed as cell growth at 0.1 uM; format: functional; conditions: read-out: Activity
IGROV-1 = assay: Antitumor activity against human IGROV1 cells assessed as cell growth at 0.1 uM; format: functional; conditions: read-out: Activity
PC-3 = assay: Antitumor activity against human PC3 cells assessed as cell growth at 0.1 uM; format: functional; conditions: read-out: Activity
Staphylococcus aureus = assay: Antimicrobial activity against Staphylococcus aureus MTCC 96 assessed as growth inhibition measured after overnight incubation by broth dilution method; format: functional
HCT-116 = assay: Antitumor activity against human HCT116 cells assessed as cell growth at 0.1 uM; format: functional; conditions: read-out: Activity
SNB-75 = assay: Antitumor activity against human SNB75 cells assessed as cell growth at 0.1 uM; format: functional; conditions: read-out: Activity
CCRF-CEM = assay: Antitumor activity against human CCRF-CEM cells assessed as cell growth at 0.1 uM; format: functional; conditions: read-out: Activity
K562 = assay: Antitumor activity against human K562 cells assessed as cell growth at 0.1 uM; format: functional; conditions: read-out: Activity
RXF 393 = assay: Antitumor activity against human RXF393 cells assessed as cell growth at 0.1 uM; format: functional; conditions: read-out: Activity
SK-OV-3 = assay: Antitumor activity against human SKOV3 cells assessed as cell growth at 0.1 uM; format: functional; conditions: read-out: Activity
SF-295 = assay: Antitumor activity against human SF295 cells assessed as cell growth at 0.1 uM; format: functional; conditions: read-out: Activity
OVCAR-8 = assay: Antitumor activity against human OVCAR8 cells assessed as cell growth at 0.1 uM; format: functional; conditions: read-out: Activity
TK-10 = assay: Antitumor activity against human TK10 cells assessed as cell growth at 0.1 uM; format: functional; conditions: read-out: Activity
NCI-H226 = assay: Antitumor activity against human NCI-H226 cells assessed as cell growth at 0.1 uM; format: functional; conditions: read-out: Activity
T47D = assay: Antitumor activity against human T47D cells assessed as cell growth at 0.1 uM; format: functional; conditions: read-out: Activity
RPMI-8226 = assay: Antitumor activity against human RPMI8226 cells assessed as cell growth at 0.1 uM; format: functional; conditions: read-out: Activity
OVCAR-5 = assay: Antitumor activity against human OVCAR5 cells assessed as cell growth at 0.1 uM; format: functional; conditions: read-out: Activity
[3] = Antitumor activity against human HCC2998 cells assessed as cell growth at 0.1 uM; format: functional; conditions: HCC 2998, read-out: Activity
[4] = Antitumor activity against human EKVX cells assessed as cell growth at 0.1 uM; format: functional; conditions: read-out: Activity
MCF7 = assay: Antitumor activity against human MCF7 cells assessed as cell growth at 0.1 uM; format: functional; conditions: read-out: Activity
SK-MEL-5 = assay: Antitumor activity against human SK-MEL-5 cells assessed as cell growth at 0.1 uM; format: functional; conditions: read-out: Activity
M14 = assay: Antitumor activity against human M14 cells assessed as cell growth at 0.1 uM; format: functional; conditions: read-out: Activity
Aspergillus niger = assay: Antimicrobial activity against Aspergillus niger MTCC 282 assessed as growth inhibition measured after overnight incubation by broth dilution method; format: functional
SK-MEL-2 = assay: cells; conditions: Homo sapiens, SK-MEL-2, read-out: Activity
Description: Antitumor activity against human SK-MEL-2 cells assessed as cell growth at 0.1 uM

MOLT-4 = assay: Antitumor activity against human MOLT4 cells assessed as cell growth at 0.1 uM; format: functional; conditions: read-out: Activity
A498 = assay: Antitumor activity against human A498 cells assessed as cell growth at 0.1 uM; format: functional; conditions: read-out: Activity
A549 = assay: Antitumor activity against human A549/ATCC cells assessed as cell growth at 0.1 uM; format: functional; conditions: read-out: Activity
NCI/ADR-RES = assay: Antitumor activity against human NCI/ADR-RES cells assessed as cell growth at 0.1 uM; format: functional; conditions: read-out: Activity
U-251 = assay: Antitumor activity against human U251 cells assessed as cell growth at 0.1 uM; format: functional; conditions: read-out: Activity
KM12 = assay: Antitumor activity against human KM12 cells assessed as cell growth at 0.1 uM; format: functional; conditions: read-out: Activity
NCI-H522 = assay: Antitumor activity against human NCI-H522 cells assessed as cell growth at 0.1 uM; format: functional; conditions: read-out: Activity
HOP-62 = assay: Antitumor activity against human HOP62 cells assessed as cell growth at 0.1 uM; format: functional; conditions: read-out: Activity

Question: What does the source list for `Cc1cnc(NC(=O)CSc2nnc(-c3cccnc3SCc3ccccc3)o2)s1`?
Answer: growth at 0.1 µM (MDA-MB-435): 96.5%; growth at 0.1 µM (HL-60): 49.8%; growth at 0.1 µM (NCI-H460): 81.1%; growth at 0.1 µM (UO-31): 22.2%; growth at 0.1 µM (MDA-MB-468): 57.5%; growth at 0.1 µM [1]: 86.2%; growth inhibition (GI) [2]: 99%; MIC ([2]; Mycobacterium tuberculosis, H37Rv): 50 µg/mL (≈ 110 µM); growth at 0.1 µM (SW-620): 90%; growth at 0.1 µM (Malme-3M): 100%; MIC (Aspergillus clavatus): 1000 µg/mL (≈ 2190 µM); growth at 0.1 µM (LOX IMVI): 73.1%; growth at 0.1 µM (UACC-62): 71.7%; growth at 0.1 µM (HCT-15): 77.3%; growth at 0.1 µM (UACC-257): 94.9%; growth at 0.1 µM (NCI-H23): 80.6%; MIC (Streptococcus pyogenes): 62.5 µg/mL (≈ 137 µM); growth at 0.1 µM (DU-145): 58%; growth at 0.1 µM (SNB-19): 65.3%; MIC (Candida albicans): 250 µg/mL (≈ 549 µM); growth at 0.1 µM (SR): 67.9%; growth at 0.1 µM (HT-29): 81.6%; growth at 0.1 µM (OVCAR-4): 67%; growth at 0.1 µM (OVCAR-3): 82.2%; growth at 0.1 µM (CAKI-1): 75.3%; growth at 0.1 µM (SF-539): 85.5%; growth at 0.1 µM (MDA-MB-231): 11%; growth at 0.1 µM (SF-268): 59.1%; MIC (Escherichia coli): 200 µg/mL (≈ 439 µM); growth at 0.1 µM (ACHN): 66.5%; growth at 0.1 µM (SN12C): 46.3%; growth at 0.1 µM (BT-549): 75.7%; MIC (Pseudomonas aeruginosa): 62.5 µg/mL (≈ 137 µM); growth at 0.1 µM (SK-MEL-28): 106%; growth at 0.1 µM (IGROV-1): 58.5%; growth at 0.1 µM (PC-3): 46.4%; MIC (Staphylococcus aureus): 125 µg/mL (≈ 274 µM); growth at 0.1 µM (HCT-116): 82.4%; growth at 0.1 µM (SNB-75): 70.6%; growth at 0.1 µM (CCRF-CEM): 37.8%; growth at 0.1 µM (K562): 77.2%; growth at 0.1 µM (RXF 393): 73%; growth at 0.1 µM (SK-OV-3): 96.2%; growth at 0.1 µM (SF-295): 90.1%; growth at 0.1 µM (OVCAR-8): 70.3%; growth at 0.1 µM (TK-10): 82.3%; growth at 0.1 µM (NCI-H226): 70.2%; growth at 0.1 µM (T47D): 37.5%; growth at 0.1 µM (RPMI-8226): 63.9%; growth at 0.1 µM (OVCAR-5): 87.5%; growth at 0.1 µM [3]: 89.5%; growth at 0.1 µM [4]: 72.1%; growth at 0.1 µM (MCF7): 62.8%; growth at 0.1 µM (SK-MEL-5): 78%; growth at 0.1 µM (M14): 84.1%; MIC (Aspergillus niger): 1000 µg/mL (≈ 2190 µM); growth at 0.1 µM (SK-MEL-2): 94%; growth at 0.1 µM (MOLT-4): 41.8%; growth at 0.1 µM (A498): 73.7%; growth at 0.1 µM (A549): 51%; growth at 0.1 µM (NCI/ADR-RES): 74%; growth at 0.1 µM (U-251): 72.8%; growth at 0.1 µM (KM12): 44.9%; growth at 0.1 µM (NCI-H522): 18.5%; growth at 0.1 µM (HOP-62): 81.1%
